Data taken from patent US9234200B2, “Oligonucleotide, glucocorticoid sensitivity enhancer, pharmaceutical composition, and expression vector” (National University Corporation Tokyo University of …, priority 2011, dated 2016).

How the values were obtained:
[1] = system: GRα and GRβ; assay: GRα and GRβ expression levels in Raji cells transfected with oligonucleotide (RT-PCR and PCR); type: cell-based, human; conditions: for GAPDH / GRα / GRβ: expression level (band intensity), oligonucleotide 300 nM by electroporation, 24 h; for GAPDH: endogenous control; for GRα/GAPDH / GRβ/GAPDH / Relative value of GRα/GRβ: oligonucleotide 300 nM; for Relative value of GRα/GRβ: cells not transfected = 1;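 on GAPDH: mean of three independent experiments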
Description: Raji cells (manufactured by Japan Health Science Foundation) derived from human Burkitt's lymphoma were used in experiments.
Raji cells were cultured and maintained in RPMI1640 medium (manufactured by Gibco) at 37° C. in an atmosphere of 5% CO2, the RPMI1640 medium being supplemented with 10% fetal bovine serum (FBS) (manufactured by Filtoron), 100 U/ml penicillin, and 100 μg/ml streptomycin.
2×10^6 Raji cells were washed with phosphate-buffered saline (PBS) and suspended in 100 μl transfection reagent of an Amaxa cell line Nucleofector Kit V (manufactured by Lonza).
After the Raji cells were cultured in the above-described medium for 24 hours, the Raji cells were used for subsequent experiments.
The expression level of glyceraldehyde-3-phosphate dehydrogenase (GAPDH) was determined as an endogenous control.
After the Raji cells were washed with PBS, RNA was extracted using a FastPure RNA Kit (manufactured by Takara Bio Inc.), and reverse transcription was performed using a PrimeScript 1st strand cDNA synthesis kit (manufactured by Takara Bio Inc.). The obtained cDNA was amplified using Platinum Taq DNA polymerase (manufactured by Invitrogen) and PCR primers (having the base sequences shown in Table 2) specific for the gene of interest. The PCR conditions included: performing initial denaturation at 94° C. for 2 minutes; performing 35 cycles of denaturation (94° C. for 30 seconds), annealing (55° C. for 30 seconds), and extension (72° C. for 1 minute); and then performing final extension at 72° C. for 4 minutes.
After the PCR was performed, DNA was separated by […] electrophoresis on a 2% agarose gel containing ethidium bromide, and the intensity of bands was quantified using an image analyzer GEL PRINT 2000i/VGA (manufactured by Genomic Solutions).

[2] = system: Raji cells; assay: BrdU incorporation assay, glucocorticoid sensitivity of oligonucleotide-transfected Raji cells; type: cell-based, human; conditions: for BrdU incorporation: absorbance at 450 nm
Description: In order to examine the change of glucocorticoid sensitivity of cells caused by introduction of oligonucleotide 1, cell proliferation was quantified by a 5-bromo-2′-deoxyuridine (BrdU) incorporation assay. Dexamethasone (manufactured by Biomol) was used as a glucocorticoid. The concentration of dexamethasone was set to varied concentrations of 0 μM (no addition), 0.1 μM, 0.5 μM, 1 μM, 5 μM, and 10 μM.
Raji cells were cultured in serum-free RPMI1640 medium for 12 hours to synchronize the cell cycle, and then re-suspended in RPMI1640 medium supplemented with serum and inoculated onto a 96-well plate.
After dexamethasone was added, the cells were cultured for 22 hours. Then, BrdU was added thereto, and the cells were cultured for another 2 hours. After centrifugation, the supernatant was discarded, and the cells were dried and fixed. The fixed cells were allowed to react with a peroxidase-labeled anti-BrdU antibody for 1 hour at room temperature. Subsequently, the cells were washed three times with PBS, and tetramethylbenzidine was added thereto. When noticeable coloring was observed, the reaction was stopped by adding H2SO4 (1M). After vigorous agitation, absorbance at 450 nm was measured using a plate reader.
Using the Raji cells to which dexamethasone was not added as a control, cell proliferation inhibitory rate (%) was calculated based on the relative ratio of the obtained absorbance. Here, statistical significance was assessed with one-way analysis of variance and multiple comparison. Tukey's multiple comparison was used for the multiple comparison. A significance level of P<0.05 (vs. no addition of oligonucleotide) was regarded as a significant difference.
BrdU incorporation assay was performed in the same manner as in the above, and alternation of the glucocorticoid sensitivity of the cells caused by the introduction of any one of oligonucleotides 2 to 5 was examined. Each experiment was carried out in quadruplicate. The values shown in Table 7 are average values thereof.

[3] = system: GRα and GRβ; conditions: HT-29 cells and MCF-7 cells; in words; cited from earlier work
[4] = system: ERα and ERβ; assay: Estrogen receptor expression level in Raji cells transfected with oligonucleotide 1 (RT-PCR and PCR); type: cell-based, human
Description: Estrogen receptor (ER) has two splice variants: ERα and ERβ. It is known that SRp30c is involved in regulating the splicing of ER mRNA.
The expressions levels of ERα and ERβ in Raji cells transfected with oligonucleotide 1 were determined by RT-PCR and PCR.
Raji cells transfected with oligonucleotide 1 were obtained in the same manner as in “Cell Culture” and “Introduction of Oligonucleotide into Cells” in Example 1. The oligonucleotide 1 concentration at the time of introduction into cells was 300 nM.
After the Raji cells were washed with PBS, RNA was extracted using a FASTPURE RNA Kit (manufactured by Takara Bio Inc.), and reverse transcription was performed using a PRIMESCRIPT 1st strand cDNA synthesis kit (manufactured by Takara Bio). The obtained cDNA was amplified using PLATINUM Taq DNA polymerase (manufactured by Invitrogen) and PCR primers (having the sequences shown in Table 8) specific for the gene of interest. The PCR conditions included: performing an initial denaturation at 94° C. for 2 minutes; performing 35 cycles of denaturation (94° C. for 30 seconds), annealing (55° C. for 30 seconds), and extension (72° C. for 1 minute); and performing a final extension at 72° C. for 4 minutes.
The expression level of GAPDH as an endogenous control was determined using PCR primers of SEQ ID Nos: 10 and 11.
After the PCR was performed, DNA was separated by […] electrophoresis on a 2% agarose gel containing ethidium bromide, and the intensity of bands was quantified using an image analyzer GEL PRINT 2000i/VGA (manufactured by Genomic Solutions Inc.).

[5] = dexamethasone 0.1 μM, quadruplicate (Table 7), label dexamethasone = no oligonucleotide transfected
[6] = dexamethasone 0.5 μM, quadruplicate (Table 7), label dexamethasone = no oligonucleotide transfected
[7] = dexamethasone 1 μM, quadruplicate (Table 7), label dexamethasone = no oligonucleotide transfected
[8] = dexamethasone 5 μM, quadruplicate (Table 7), label dexamethasone = no oligonucleotide transfected
[9] = expression level (band intensity), oligonucleotide 1 300 nM

Compound “Oligonucleotide 2: an oligonucleotide having a base sequence represented by SEQ ID NO: 2 (5′-AAAAGGGCACAGCTTCTTTTCCCATTTAATGAAA-3′) (listed as DNA, chemistry not given here)” has a GAPDH [1] of 3169.938, a GRα [1] of 3340.440 and a GRβ [1] of 4641.922. The GRα/GAPDH [1] was 1.054, the GRβ/GAPDH [1] was 1.467 and the “Relative value of GRα/GRβ” value [1] was 1.226. For the same compound, the “cell proliferation inhibitory rate” value [2, 5] was 10.541%, the “cell proliferation inhibitory rate” value [2, 6] was 19.044% and the “cell proliferation inhibitory rate” value [2, 7] was 22.769%. For the same compound, the “cell proliferation inhibitory rate” value [2, 8] was 36.402%.

With “Oligonucleotide 5: an oligonucleotide having a base sequence represented by SEQ ID NO: 5 (5′-CAGATTTTTTTATTATGATGT-3′) (listed as DNA, chemistry not given here)” the GAPDH [1] was 3087.403, the GRα [1] was 3210.228 and the GRβ [1] was 4516.989. For the same compound, the GRα/GAPDH [1] was 1.041, the GRβ/GAPDH [1] was 1.461 and the “Relative value of GRα/GRβ” value [1] was 1.210. The “cell proliferation inhibitory rate” value [2, 5] was 29.842%, the “cell proliferation inhibitory rate” value [2, 6] was 26.632% and the “cell proliferation inhibitory rate” value [2, 7] was 32.895%. The “cell proliferation inhibitory rate” value [2, 8] was 36.053%.

For `CC(/C=C/C(=O)NO)=C\[C@@H](C)C(=O)c1ccc(N(C)C)cc1` [trichostatin A], the “GRα and GRβ expression levels” value [3] is listed as “increase GRα expression levels while decreasing GRβ expression levels”.

For `Nc1ncn([C@H]2C[C@H](O)[C@@H](CO)O2)c(=O)n1` [5-aza-2′-deoxycytidine], the “GRα and GRβ expression levels” value [3] is listed as “increase GRα expression levels while decreasing GRβ expression levels”.

In the case of `CCCC(=O)[O-].[Na+]` [sodium butyrate], the “GRα and GRβ expression levels” value [3] is listed as “increase GRα expression levels while decreasing GRβ expression levels”.

With “Oligonucleotide 3: an oligonucleotide having a base sequence represented by SEQ ID NO: 3 (5′-TAAGATGACTTTCTTTTCCCCCACGTATCCT-3′) (listed as DNA, chemistry not given here)” the GAPDH [1] was 3128.467, the GRα [1] was 3177.814 and the GRβ [1] was 4596.457. The GRα/GAPDH [1] was 1.015, the GRβ/GAPDH [1] was 1.471 and the “Relative value of GRα/GRβ” value [1] was 1.182. For the same compound, the “cell proliferation inhibitory rate” value [2, 5] was 16.924%, the “cell proliferation inhibitory rate” value [2, 6] was 34.134% and the “cell proliferation inhibitory rate” value [2, 7] was 37.164%. The “cell proliferation inhibitory rate” value [2, 8] was 48.256%.

“Oligonucleotide 1: an oligonucleotide having a base sequence represented by SEQ ID NO: 1 (5′-CTTTCTGGTTTTAACCACATAACATTCTATA-3′) (listed as DNA, chemistry not given here)” gave a GAPDH [1] of 3033.167, a GRα [1] of 3278.767 and a GRβ [1] of 4611.084. The GRα/GAPDH [1] was 1.082, the GRβ/GAPDH [1] was 1.519 and the “Relative value of GRα/GRβ” value [1] was 1.213. For the same compound, the “expression level of GRβ, concentration dependency” value ([1]; various concentrations of oligonucleotide 1) was “decreased the expression level of GRβ in a concentration-dependent manner”, the GAPDH ([4]; expression level (band intensity), endogenous control, oligonucleotide 1 300 nM) was 2476.113 and the ERα [4, 9] was 2201.941. For the same compound, the ERβ [4, 9] was 1299.820, the “regulation of the splicing of ER mRNA” value ([4]; in words) was “does not affect the regulation of the splicing of ER mRNA” and the ERα/ERβ ([4]; oligonucleotide 1 300 nM) was 1.694. For the same compound, the ERα/GAPDH ([4]; oligonucleotide 1 300 nM) was 0.889, the ERβ/GAPDH ([4]; oligonucleotide 1 300 nM) was 0.525 and the “Relative value of ERα/ERβ” value ([4]; oligonucleotide 1 300 nM, cells not transfected = 1) was “approximately 1”. For the same compound, the “Relative value of ERα/ERβ” value ([4]; oligonucleotide 1 300 nM, cells not transfected = 1, listed as 1) was 1.001, the BrdU incorporation ([2]; dexamethasone 0 μM, triplicate) was 0.556 and the BrdU incorporation ([2]; dexamethasone 0.1 μM, triplicate, label dexamethasone = no oligonucleotide introduced) was 0.372. It also gave a BrdU incorporation ([2]; dexamethasone 0.5 μM, triplicate, label dexamethasone = no oligonucleotide introduced) of 0.286, a BrdU incorporation ([2]; dexamethasone 1 μM, triplicate, label dexamethasone = no oligonucleotide introduced) of 0.292 and a BrdU incorporation ([2]; dexamethasone 5 μM, triplicate, label dexamethasone = no oligonucleotide introduced) of 0.271. The BrdU incorporation ([2]; dexamethasone 10 μM, triplicate, label dexamethasone = no oligonucleotide introduced) was 0.279, the “cell proliferation inhibitory rate” value ([2]; dexamethasone 0.1 μM vs no dexamethasone, triplicate, label dexamethasone = no oligonucleotide introduced) was 32.874% and the “cell proliferation inhibitory rate” value ([2]; dexamethasone 0.5 μM vs no dexamethasone, triplicate, label dexamethasone = no oligonucleotide introduced) was 48.364%. For the same compound, the “cell proliferation inhibitory rate” value ([2]; dexamethasone 1 μM vs no dexamethasone, triplicate, label dexamethasone = no oligonucleotide introduced) was 47.553%, the “cell proliferation inhibitory rate” value ([2]; dexamethasone 5 μM vs no dexamethasone, triplicate, label dexamethasone = no oligonucleotide introduced) was 50.624% and the “cell proliferation inhibitory rate” value ([2]; dexamethasone 10 μM vs no dexamethasone, triplicate, label dexamethasone = no oligonucleotide introduced) was 49.526%. For the same compound, the “BrdU incorporation on addition of dexamethasone, compared to Raji cells not transfected” value ([2]; in words) was “significant reduction in BrdU incorporation”, the “cell proliferation inhibitory rate on addition of dexamethasone, compared to Raji cells not transfected” value ([2]; in words) was “significant increase in cell proliferation inhibitory rate” and the “glucocorticoid sensitivity of cells” value ([2]; in words) was “increased the glucocorticoid sensitivity of cells”.
